Measured values from patent US5262417A, “Antibacterial quinolone compounds” (The Upjohn Company, priority 1991, dated 1993).

Legend:
Type in all cases: cell-based
[1] = tested on: Escherichia coli UC 51 (EC); assay: Dipped disk (disk-diffusion) assay, disks loaded with 0.10 ml; settings: 0.10 ml per disk
Protocol: (§1) The effectiveness of the subject compounds on some bacteria were obtained by performing a dipped disk assay. The antibacterial activity of the compounds is determined by the disk-diffusion method. […] They were then applied to the surface of microorganism-seeded agar assay trays, which contained the bacterial strain Pseudomonas aeruginosa UC 95 )PA), Escherichia coli UC 51 (EC) or Staphylococcus aureus UC 80 (SA). The assay trays were incubated overnight under aerobic condition to allow for the growth of the organisms. Zones of growth inhibition due to the action of the antibiotic were then measured to the nearest millimeter.

[2] = tested on: Pseudomonas aeruginosa UC 95 (PA); assay: as above; settings: Conc 0.1 mg/ml, 0.10 ml per disk
Protocol: as §1

[3] = tested on: Staphylococcus aureus UC 80 (SA); assay: as above; settings: 0.10 ml per disk
Protocol: as §1

[4] = tested on: Escherichia coli UC 51 (EC); assay: Dip disk (disk-diffusion) assay, disks loaded with 0.05 ml; settings: 0.05 ml per disk; for Growth Inhibition Zone, EC / zone of inhibition at 0.1 µg/mL: 0.1 mcg/ml; for zone of inhibition at 1 µg/mL / zone of inhibition at 0.1 µg/mL: Escherichia coli, UC51, read-out: Growth Inhibition zone, EC; for zone of inhibition at 1 µg/mL: 1.0 mcg/ml
Protocol: (§2) The effectiveness of the subject compounds on bacteria were obtained by performing a dip disk assay. The antibacterial activity of the compounds was determined by the disk-diffusion method. Paper disks (12.7 mm) were loaded with 0.05 ml of drug solution prepared at a concentration of 0.1 mcg/ml; the disks were allowed to air dry. They were then applied to the surface of microorganism-seeded agar assay trays, which contained the bacterial strain Pseudomonas aeruginosa UC 95 (PA), Escherichia coli UC 51 (EC), Klebsiella pneumoniae UC 57 (KP), or Staphylococcus aureus UC 80 (SA). The assay trays were incubated overnight under aerobic condition to allow for the growth of the organisms. Zones of growth inhibition due to the action of the antibiotic were then measured to the nearest millimeter.
(§3) The effectiveness of additional compounds 5-9, (5-7 are Formula IAa compounds and 8 and 9 are Formula IAb compounds) on bacteria were obtained by performing a dip disk assay as described above. The antibacterial activity of the compounds was determined by the disk-diffusion method where the disks were loaded with 0.05 ml of drug solution prepared at a concentration of 1.0 mcg/ml; the disks were allowed to air dry.

[5] = tested on: Pseudomonas aeruginosa UC 95 (PA); assay: as above; settings: 0.05 ml per disk; for Growth Inhibition zone, PA / zone of inhibition at 0.1 µg/mL: 0.1 mcg/ml; for zone of inhibition at 1 µg/mL / zone of inhibition at 0.1 µg/mL: Pseudomonas aeruginosa, UC95, read-out: Growth Inhibition zone, PA; for zone of inhibition at 1 µg/mL: 1.0 mcg/ml
Protocol: as §2, §3

[6] = tested on: Staphylococcus aureus UC 80 (SA); assay: as above; settings: 0.05 ml per disk; for Growth Inhibition Zone, SA / zone of inhibition at 0.1 µg/mL: 0.1 mcg/ml; for zone of inhibition at 1 µg/mL / zone of inhibition at 0.1 µg/mL: Staphylococcus aureus, UC80, read-out: Growth Inhibition zone, SA; for zone of inhibition at 1 µg/mL: 1.0 mcg/ml
Protocol: as §2, §3

[7] = tested on: Klebsiella pneumoniae UC 57 (KP); assay: as above; settings: 0.05 ml per disk; for Growth Inhibition zone, KP / zone of inhibition at 0.1 µg/mL: 0.1 mcg/ml; for zone of inhibition at 1 µg/mL / zone of inhibition at 0.1 µg/mL: Klebsiella pneumoniae, UC57, read-out: Growth Inhibition zone, KP; for zone of inhibition at 1 µg/mL: 1.0 mcg/ml
Protocol: as §1, with “on” for “on some”, “a dip” for “a dipped”, “compounds was” for “compounds is”, “95 (PA),” for “95 )PA),”, “51 (EC), Klebsiella pneumoniae UC 57 (KP),” for “51 (EC)”, “millimeter. […]” for “millimeter.”

[8] = tested on: Gram-positive and Gram-negative bacteria; assay: Dipped disk assay, overall antibacterial activity (Formula IB)
Protocol: The effectiveness of the subject compounds on some bacteria were obtained by performing a dipped disk assay. The antibacterial activity of the compounds is determined by the disk-diffusion method. Paper disks (12.7 mm) were loaded with 0.10 ml of drug solution prepared at a concentration of 1 and 0.1 mcg/ml; the disks were allowed to air dry. They were then applied to the surface of microorganism-seeded agar assay trays, which contained the bacterial strain Pseudomonas aeruginosa UC 95 )PA), Escherichia coli UC 51 (EC) or Staphylococcus aureus UC 80 (SA). The assay trays were incubated overnight under aerobic condition to allow for the growth of the organisms. Zones of growth inhibition due to the action of the antibiotic were then measured to the nearest millimeter.

[9] = tested on: gram negative and positive; assay: Compound 10 compared to ciprofloxacin, overall activity; settings: compared with ciprofloxacin

For “2-[4-(1-Ethyl-3-carboxy-6-fluoro-1,4-dihydro-4-oxo-7-quinolinyl)-1-piperizinyl]2-butanedioic acid, dimethyl ester [Compound 2]”, the “Growth Inhibition Zone, EC” value ([1]; Conc 0.1 mg/ml) was 30 mm, the “Growth Inhibition Zone, EC” value ([1]; Conc 1 mg/ml) was 30 mm and the “Growth Inhibition zone, PA” value [2] was 35 mm. The “Growth Inhibition Zone, SA” value ([3]; Conc 0.1 mg/ml) was 25 mm, the “Growth Inhibition Zone, SA” value ([3]; Conc 1 mg/ml) was 28 mm and the “Growth Inhibition Zone, EC” value [4] was 23 millimeter. The “Growth Inhibition zone, PA” value [5] was 25 millimeter, the “Growth Inhibition Zone, SA” value [6] was 21 millimeter and the “Growth Inhibition zone, KP” value [7] was 25 millimeter. The “gram negative and positive activity (in words)” value [8] was “potent gram negative and positive activity as compared to the commercially available antibacterial Ciprofloxacin”.

`COC(=O)/C=C(\C(=O)OC)N1CCN(c2c(F)c(N)c3c(=O)c(C(=O)O)cn(C4CC4)c3c2F)CC1` [Compound 5, 2-[4-(5-amino-3-carboxy-1-cyclopropyl-6,8-difluoro-1,4-dihydro-4-oxo-7-quinolinyl)-1-piperazinyl]-2-butenedioic acid, (E)-1,4-dimethyl ester] was tested, and the zone of inhibition at 1 µg/mL [4] was 24 mm, the zone of inhibition at 1 µg/mL [5] was 27 mm and the zone of inhibition at 1 µg/mL [6] was 27 mm. The zone of inhibition at 1 µg/mL [7] was 28 mm.

`COC(=O)/C=C(/NC1CCN(c2c(F)cc3c(=O)c(C(=O)O)cn(-c4ccc(F)cc4F)c3c2F)C1)C(=O)OC` (stereo not shown) [Compound 8, 2-[4-(3-carboxy-1-benzene(2,4-difluoro)-1,4-dihydro-4-oxo-7-quinolinyl)-1-(3-aminopyrrolidinyl)]-2-butenedioic acid, (E)-1,4-dimethyl ester] gave a zone of inhibition at 1 µg/mL [4] of 30 mm, a zone of inhibition at 1 µg/mL [5] of 28 mm and a zone of inhibition at 1 µg/mL [6] of 32 mm. For the same compound, the zone of inhibition at 1 µg/mL [7] was 34 mm.

For `COC(=O)/C=C(\C)NC1CCN(c2c(F)cc3c(=O)c(C(=O)O)cn(C4CC4)c3c2F)C1` (stereo not shown) [Compound 9, 2-[4-(3-carboxy-1-cyclopropyl-6,8-difluoro-1,4-dihydro-4-oxo-7-quinolinyl)-1-(3-aminopyrrolidinyl)]-3-butenoic acid-(E)-1-methyl ester], the zone of inhibition at 1 µg/mL [4] was 24 mm, the zone of inhibition at 1 µg/mL [5] was 32 mm and the zone of inhibition at 1 µg/mL [6] was 23 mm. The zone of inhibition at 1 µg/mL [7] was 26 mm.

In the case of `COC(=O)/C=C(/NC1CCN(c2c(F)cc3c(=O)c(C(=O)O)cn(C4CC4)c3c2F)C1)C(=O)OC` (stereo not shown) [Compound 10, 2-[4-(3-carboxy-1-cyclopropyl-6,8-difluoro-1,4-dihydro-4-oxo-7-quinolinyl)-1-(3-aminopyrrolidinyl)]-2-butenedioic acid-(E)-1,4-dimethyl ester], the “gram negative and positive activity (in words)” value [9] is reported as “gram negative and positive activity greatly increased over that of ciprofloxacin”.

Work on `COC(=O)C=C(C(=O)OC)N1CCN(c2cc3c(cc2F)c(=O)c(C(=O)O)cn3C2CC2)CC1` [Compound 3, 2-[4-(1-Cyclopropyl-3-carboxy-6-fluoro-1,4-dihydro-4-oxo-7-quinolinyl)-1-piperazinyl]2-butenedioic acid, dimethyl ester] yielded a zone of inhibition at 0.1 µg/mL [4] of 29 mm, a zone of inhibition at 0.1 µg/mL [5] of 36 mm and a zone of inhibition at 0.1 µg/mL [6] of 25 mm. It also gave a zone of inhibition at 0.1 µg/mL [7] of 29 mm.

In the case of `COC(=O)/C=C(\C(=O)OC)N1CCN(c2c(F)cc3c(=O)c(C(=O)O)cn(-c4ccc(F)cc4)c3c2F)CC1` [Compound 7], the zone of inhibition at 1 µg/mL [4] is reported as 24 mm, the zone of inhibition at 1 µg/mL [5] is reported as 15 mm and the zone of inhibition at 1 µg/mL [6] is reported as 22 mm. For the same compound, the zone of inhibition at 1 µg/mL [7] was 26 mm.

In the case of “2-[4-(1-Cyclopropyl-3-carboxy-6,8-difluoro-1,4-dihydro-4-oxo-7-quinolinyl)-1-piperazinyl]2-butenedioic acid, dimethyl ester [Compound 1]”, the “Growth Inhibition Zone, EC” value ([1]; Conc 0.1 mg/ml) is reported as 30 mm, the “Growth Inhibition Zone, EC” value ([1]; Conc 1 mg/ml) is reported as 35 mm and the “Growth Inhibition zone, PA” value [2] is reported as 35 mm. For the same compound, the “Growth Inhibition Zone, SA” value ([3]; Conc 0.1 mg/ml) was 25 mm, the “Growth Inhibition Zone, SA” value ([3]; Conc 1 mg/ml) was 28 mm and the “Growth Inhibition Zone, EC” value [4] was 31 millimeter. The “Growth Inhibition zone, PA” value [5] was 36 millimeter, the “Growth Inhibition Zone, SA” value [6] was 27 millimeter and the “Growth Inhibition zone, KP” value [7] was 31 millimeter. For the same compound, the “gram negative and positive activity (in words)” value [8] was “potent gram negative and positive activity as compared to the commercially available antibacterial Ciprofloxacin”.

Work on `COC(=O)C/C=C(\C(=O)OC)N1CCN(c2c(F)cc3c(=O)c(C(=O)O)cn(C4CC4)c3c2F)CC1` [Compound 4, 2-[4-(3-carboxy-1-cyclopropyl-6,8-difluoro-1,4-dihydro-4-oxo-4-oxo-7-quinolinyl)-1-piperazineyl]-2-pentenedioic acid-(E)-1,5-dimethyl ester] yielded a zone of inhibition at 0.1 µg/mL [4] of 27 mm, a zone of inhibition at 0.1 µg/mL [5] of 33 mm and a zone of inhibition at 0.1 µg/mL [6] of 28 mm. It also gave a zone of inhibition at 0.1 µg/mL [7] of 33 mm.

`COC(=O)/C=C(\C(=O)OC)N1CCN(c2c(F)cc3c(=O)c(C(=O)O)cn(C4CCC4)c3c2F)CC1` [Compound 6, 2-[4-(3-carboxy-1-cyclobutyl-6,8-difluuoro-1,4-dihydro-4-oxo-7-quinolinyl)-1-piperazinyl]-2-butenedioic acid (E)-1,4-dimethyl ester] showed a zone of inhibition at 1 µg/mL [4] of 24 mm, a zone of inhibition at 1 µg/mL [5] of 16 mm and a zone of inhibition at 1 µg/mL [6] of 22 mm. It also gave a zone of inhibition at 1 µg/mL [7] of 26 mm.
